The target of assay [1] is RNA polymerase. Kind of assay: Enzyme inhibition: RNA polymerase inhibition. The assay is classed as biochemical.
Assay [2] relates to Bacillus subtilis. Put plainly: Antimicrobial activity against Bacillus subtilis (MIC, disc). Type of assay: cell-based. To be noted: Bacillus subtilis.
The test system of assay [3] is MEL28 = human melanoma. Put plainly: Cytotoxicity against MEL28 cells. Type of assay: cell-based.
In assay [4] the test system is protein synthesis. Kind of assay: Antimetabolism: protein synthesis inhibition. Type of assay: cell-based.
Assay [5] deals with A549 = human lung carcinoma. Put plainly: Cytotoxicity against A549 cells. Type of assay: cell-based.
Assay [6] deals with CV-1 = monkey kidney cells. Kind of assay: Cytotoxicity against CV-1 cells. The assay is classed as cell-based.
Assay [7] has as its system DNA synthesis. Kind of assay: Antimetabolism: DNA synthesis inhibition. The assay is classed as cell-based.
The subject of assay [8] is HT29 = human colon carcinoma. Kind of assay: Cytotoxicity against HT29 cells. The assay is classed as cell-based.
Assay [9] addresses DNA polymerase. Put plainly: Enzyme inhibition: DNA polymerase inhibition. The assay is classed as biochemical.
Assay [10] relates to B16 melanoma. The following applies: evaluated by the NCI; cited from earlier work.
The test system of assay [11] is L1210 = murine lymphoma cells. Put plainly: Cytotoxicity against L1210 cells. Type of assay: cell-based.
The test system of assay [12] is RNA synthesis. Kind of assay: Antimetabolism: RNA synthesis inhibition. Type of assay: cell-based.
The subject of assay [13] is P388 = murine lymphoma cells. Put plainly: Cytotoxicity against P388 cells. The assay is classed as cell-based.
Assay [14] has as its system P388 murine leukemia, B16 melanoma, Lewis lung carcinoma, and several human tumor xenograft models in mice. The following applies: human tumor xenografts in mice; cited from earlier work. On the technique in general: In xenograft studies the graft and the host belong to different species.

SMILES strings stand for the structures. Where only a bound is given, the exact number is not on record here.

`COc1cc2c(cc1O)CCN[C@]21CS[C@@H]2c3c(OC(C)=O)c(C)c4c(c3[C@H](COC1=O)N1[C@@H]2[C@@H]2N[C@@H](Cc3cc(C)c(OC)c(O)c32)[C@@H]1O)OCO4` [Et 729]: in assay [1], the “RNAp (RNA polymerase inhibition) IC50” value is 0.05 µg/mL. Besides, the “B.s. MIC” value in assay [2] worked out at 0.08 μg/disc. Besides, the “MEL28 IC50” value in assay [3] is recorded as 5.0 ng/mL. Also, the “Prot. (protein synthesis inhibition) IC50” value in [4] is over 1 µg/mL. Also, in assay [5], the “A549 IC50” value is 0.2 ng/mL. Further, in assay [6], the “CV-1 IC50” value is listed as 2.5 ng/mL. Also, the “DNA (DNA synthesis inhibition) IC50” value in assay [7] was 0.2 µg/mL. Further, the “HT29 IC50” value in assay [8] worked out at 0.5 ng/mL. Moreover, the “DNAp (DNA polymerase inhibition) IC50” value in assay [9] was determined as 1.5 µg/mL. The “survivors 60 days following infection with B16 melanoma” value in [10] is given as 8 of 10. The “L1210 IC50” value in [11] is under 1 ng/mL. Further, the “RNA (RNA synthesis inhibition) IC50” value in assay [12] came to 0.02 µg/mL. Further, the “P388 IC50” value in assay [13] was found to be 0.2 ng/mL. Also, the efficacy in vivo result in [14] is “promising efficacy in vivo”.

Values taken from patent US20090247533A1, “Ecteinascidins” (The Board of Trustees of the University of Illinois, priority 1994, published 2009).
